The target of data set [1] is T1, rat mGlu1a receptor (Rattus norvegicus, UniProt P23385).
T1 construct: expressed in transfected cells; host or cells: EBNA cells (transient transfection)
Nature of the data set: [Ca2+]i measurement (FLIPR) on mGlu1a transfected EBNA cells. Format: cell-based. Conditions: for EC50: mGlu1a transfected EBNA cells, Fluo-3 AM, antagonists tested against 10 μM glutamate as agonist; for agonist or antagonist on group I mGlu receptor: mode of action, in words. On the procedure: cDNA encoding for rat mGlula receptor obtained from Prof.
[Ca^2+]i measurement were performed on mGlu1a transfected EBNA cells after incubation of the cells with Fluo-3 AM (0.5 μM final concentration) for 1 hour at 37° C. followed by 4 washes with assay buffer (DMEM supplemented with Hank's salt and 20 mM HEPES). [Ca^2+]i measurement were done using a fluorometric imaging plate reader (FLIPR, Molecular Devices Corporation, La Jolla, Calif., USA). When compounds were evaluated as antagonists they were tested against 10 μM glutamate as agonist.
The inhibition (antagonists) or activation (agonists) curves were fitted with a four parameter logistic equation giving EC50, IC50and Hill coefficient using the iterative non linear curve fitting software Origin (Microcal Software Inc., Northampton, Mass., USA).

T1 sequence (P23385 19-1199): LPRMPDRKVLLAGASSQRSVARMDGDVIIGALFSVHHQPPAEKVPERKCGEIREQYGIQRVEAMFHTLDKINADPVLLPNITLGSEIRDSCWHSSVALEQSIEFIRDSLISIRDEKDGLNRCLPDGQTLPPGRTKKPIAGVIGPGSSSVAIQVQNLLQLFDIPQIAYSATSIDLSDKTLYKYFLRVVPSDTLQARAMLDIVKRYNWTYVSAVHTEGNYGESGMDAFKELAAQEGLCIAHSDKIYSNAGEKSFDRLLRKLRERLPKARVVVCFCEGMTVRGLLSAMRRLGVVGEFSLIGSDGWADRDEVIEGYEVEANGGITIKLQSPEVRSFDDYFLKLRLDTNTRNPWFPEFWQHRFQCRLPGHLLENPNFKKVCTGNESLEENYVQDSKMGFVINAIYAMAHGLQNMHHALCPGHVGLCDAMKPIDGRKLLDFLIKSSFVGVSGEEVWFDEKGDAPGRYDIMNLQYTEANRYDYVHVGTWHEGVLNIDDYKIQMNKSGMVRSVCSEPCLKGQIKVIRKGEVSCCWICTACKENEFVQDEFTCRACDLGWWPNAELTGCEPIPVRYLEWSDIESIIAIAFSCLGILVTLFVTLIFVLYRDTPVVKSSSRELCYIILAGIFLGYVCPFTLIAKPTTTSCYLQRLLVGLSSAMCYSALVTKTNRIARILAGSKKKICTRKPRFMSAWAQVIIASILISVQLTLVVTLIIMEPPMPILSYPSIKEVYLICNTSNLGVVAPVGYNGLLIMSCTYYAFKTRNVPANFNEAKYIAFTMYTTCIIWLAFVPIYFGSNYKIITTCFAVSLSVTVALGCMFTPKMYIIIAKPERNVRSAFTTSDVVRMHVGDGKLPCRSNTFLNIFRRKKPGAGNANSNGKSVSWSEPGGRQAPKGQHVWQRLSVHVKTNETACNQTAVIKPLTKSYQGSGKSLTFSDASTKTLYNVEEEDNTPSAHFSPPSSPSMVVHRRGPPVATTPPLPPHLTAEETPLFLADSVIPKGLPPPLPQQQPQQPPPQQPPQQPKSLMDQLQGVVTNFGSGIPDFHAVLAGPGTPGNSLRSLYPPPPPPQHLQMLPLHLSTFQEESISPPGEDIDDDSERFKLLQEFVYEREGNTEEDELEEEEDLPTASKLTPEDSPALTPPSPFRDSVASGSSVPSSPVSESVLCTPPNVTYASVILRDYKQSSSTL

For the molecule `CCCOCCNC(=O)C(c1ccccc1)c1ccccc1` [Example 21, 2,2-Diphenyl-N-(2-propoxy-ethyl)-acetamide], the melting point – broadly, the temperature, or range, at which the solid turns liquid – is 77.8 to 78.9 °C. Also, the response in data set [1] was half-maximal at 3.13 µM (EC50). With `CCCC=CCNC(=O)C(c1ccccc1)c1ccccc1` [Example 16, N-Hex-2-enyl-2,2-diphenyl-acetamide], the melting point was determined as 81 °C.

In the case of `CCOCCNC(=O)C(c1ccccc1)c1ccccc1` [Example 20, N-(2-Ethoxy-ethyl)-2,2-diphenyl-acetamide], the melting point is 83.5 to 86.2 °C.

With `O=C(NCC1CC1)C(c1ccccc1)c1ccccn1` (racemic) [Example 22, (RS)-N-Cyclopropylmethyl-2-phenyl-2-pyridin-2-yl-acetamide], in data set [1], the “agonist or antagonist on group I mGlu receptor” value (from here on “agonist or antagonist”) is listed as “antagonistic activity”. The molecule `O=C(NCCCC(F)(F)F)C(c1ccccc1)c1ccccc1` [Example 26, 2,2-Diphenyl-N-(4,4,4-trifluoro-butyl)-acetamide] came in with a melting point of 166 °C. For the same molecule, in data set [1], the response was half-maximal at 15 µM (EC50) and the “agonist or antagonist” value is “antagonistic activity”. On to `CCNC(=O)C(c1ccccc1)c1ccccc1` [Example 12, N-Ethyl-2,2-diphenyl-acetamide], for which the melting point was determined as 87 °C. Still for that read-out and setting: to `CCCCCCNC(=O)C(c1ccccc1)c1ccccc1` [Example 9, N-Hexyl-2,2-diphenyl-acetamide] belongs 100 °C. On to `CCCCNC(=O)C(C)(c1ccccc1)c1ccccc1` [Example 6, N-Butyl-2,2-diphenyl-propionamide], for which the “agonist or antagonist” value in data set [1] is recorded as “antagonistic activity”. For the molecule `C=CCNC(=O)C(c1ccccc1)c1ccccc1` [Example 13, N-Allyl-2,2-diphenyl-acetamide], the melting point turned out to be 186 °C. Same read-out and setting: the figure for `CC(C)CCNC(=O)C(c1ccccc1)c1ccccc1` [Example 15, N-(3-Methyl-butyl)-2,2-diphenyl-acetamide] is 128 °C; for `CC=CCCCNC(=O)C(c1ccccc1)c1ccccc1` [Example 17, N-Hex-4-enyl-2,2-diphenyl-acetamide] it is 85 °C; for `CCCCCCCNC(=O)C(c1ccccc1)c1ccccc1` [Example 8, N-Heptyl-2,2-diphenyl-acetamide] it is 90 °C. `CC(C(=O)NCC1CCC1)(c1ccccc1)c1ccccc1` [Example 25, N-Cyclobutylmethyl-2,2-diphenyl-propionamide] gave a melting point of 79 °C. Moreover, the “agonist or antagonist” value in data set [1] is given as “antagonistic activity”. In turn, `C#CCCCNC(=O)C(c1ccccc1)c1ccccc1` [Example 28, N-Pent-4-ynyl-2,2-diphenyl-acetamide] returned a melting point of 90 °C. Molecule `COCCCCNC(=O)C(c1ccccc1)c1ccccc1` [Example 19, N-(4-Methoxy-butyl)-2,2-diphenyl-acetamide] showed a melting point of 75.5 to 76.8 °C. The EC50 (as a rule, the concentration giving half of the maximal effect) in data set [1] amounted to 2.98 µM. In turn, `C#CCNC(=O)C(c1ccccc1)c1ccccc1` [Example 14, 2,2-Diphenyl-N-prop-2-ynyl-acetamide] displayed a melting point of 131 °C.

On to `CC(C(=O)NCC1CC1)(c1ccccc1)c1ccccc1` [Example 11, N-Cyclopropylmethyl-2,2-diphenyl-propionamide], for which the melting point amounted to 380 °C. The “agonist or antagonist” value in data set [1] is given as “antagonistic activity”. Take `CCCCNC(=O)C(c1ccccc1)c1ccccc1` [Example 5, N-Butyl-2,2-diphenyl-acetamide]: the melting point was found to be 96 °C. Consider `CCCNC(=O)C(C)(c1ccccc1)c1ccccc1` [Example 3, 2,2-Diphenyl-N-propyl-propionamide], for which the melting point turned out to be 62 °C. Also, in data set [1], the EC50 is 12.7 µM and the “agonist or antagonist” value was “antagonistic activity”.

As to `CCCCCNC(=O)C(C)(c1ccccc1)c1ccccc1` [Example 4, N-Pentyl-2,2-diphenyl-propionamide], in data set [1], the EC50 was found to be 1 µM and the “agonist or antagonist” value is reported as “antagonistic activity”. Regarding `COCCCCCNC(=O)C(c1ccccc1)c1ccccc1` [Example 18, N-(5-Methoxy-pentyl)-2,2-diphenyl-acetamide], the melting point lay in the range of 74.2 to 75 °C. Regarding `CC(C(=O)NCCCC(F)(F)F)(c1ccccc1)c1ccccc1` [Example 27, 2,2-Diphenyl-N-(4,4,4-trifluoro-butyl)-propionamide], the melting point was found to be 82 °C. For the same molecule, the “agonist or antagonist” value in data set [1] is given as “antagonistic activity”. Turning to `CCCNC(=O)C(c1ccccc1)c1ccccc1` [Example 2, 2,2-Diphenyl-N-propyl-acetamide], the melting point came out at 90 °C. The EC50 in data set [1] turned out to be 2.12 µM. The corresponding values for `O=C(NC1CC1)C(c1ccccc1)c1ccccc1` [Example 7, N-Cyclopropyl-2,2-diphenyl-acetamide] are 292 °C and 17 µM. Regarding `O=C(NCC1CC1)C(c1ccccc1)c1ccccc1` [Example 10, N-Cyclopropylmethyl-2,2-diphenyl-acetamide], the melting point is 130 °C.

As for `CCCCCNC(=O)C(c1ccccc1)c1ccccc1` [Example 1, N -Pentyl-2,2-diphenyl-acetamide], the melting point was found to be 101 °C.

The record behind these values is patent US6548522B1, “Method for treating conditions related to the glutamate receptor using carboxylic acid amide derivatives” (Hoffmann-La Roche Inc., priority 1999, dated 2003).
